The results in this text go back to ChEMBL document CHEMBL3580558, “Salternamides A-D from a Halophilic Streptomyces sp. Actinobacterium” (J Nat Prod, 2015).

A value given as a limit tells only on which side of the number the result lay.

One experiment concerns HCT-116. As to the kind of experiment: Antiproliferative activity against human HCT116 cells after 3 days by sulforhodamine B assay. The experiment is classed as functional, cell-based. Particulars: HCT-116, 72 h; call rule not given here.
Another experiment has as its system K562. Kind of experiment: Antiproliferative activity against human K562 cells after 3 days by sulforhodamine B assay. It is filed as functional, cell-based. The settings on record: K562, 72 h. In general terms: The SRB assay estimates cell density from bound dye.
Experiment [1] in a line: Antiproliferative activity against human SKHEP1 cells after 3 days by sulforhodamine B assay. It is filed as functional, cell-based. The settings on record: SK-HEP1, 72 h.
The subject of a further experiment is A549. Kind of experiment: Antiproliferative activity against human A549 cells after 3 days by sulforhodamine B assay. The experiment is classed as functional, cell-based. Particulars: A549, 72 h.
Experiment [2] in a line: Antiproliferative activity against human SNU638 cells after 3 days by sulforhodamine B assay. It is filed as functional, cell-based. The settings on record: SNU-638, 72 h.
A short description of experiment [3]: Inhibition of porcine cerebral cortex Na+/K+ ATPase incubated at 37 degC for 30 mins using 3-O-methylfluorescein phosphate and […] by fluorometry. The experiment is classed as tissue-based, Sus scrofa.
Another experiment deals with MDA-MB-231. Kind of experiment: Antiproliferative activity against human MDA-MB-231 cells after 3 days by sulforhodamine B assay. It is filed as functional, cell-based. Particulars: MDA-MB-231, 72 h.

Broadly, the IC50 is the midpoint of a concentration-inhibition curve. With `CC(C)=C[C@H](C)C[C@H](C)/C=C/C(=O)NC1=C[C@](O)(CCCCC(=O)O)C=C(Cl)C1=O`, the IC50 was found to be 0.96 µM with HCT-116; 8.9 µM with K562; 2.7 µM in experiment [1]; 36 µM in the experiment on A549; 0.96 µM in experiment [2]; 62 µM in experiment [3] (read-out: IC50). The molecule further came in with an IC50 in the experiment with MDA-MB-231 of 8.9 µM.

As for `CC(C)=C[C@H](C)C[C@H](C)/C=C/C(=O)NC1=C[C@](O)(CCCCC(=O)O)C=CC1=O`, the IC50 with HCT-116 is 55 µM; in the experiment on K562 it was > 100 µM; in experiment [1], 56 µM; with A549 it was 82 µM; in experiment [2], 27 µM; in experiment [3], “Not Active”. In the experiment on MDA-MB-231, this molecule gave an IC50 of 27 µM.

On to `CC(C)=C[C@H](C)C[C@H](C)/C=C/C(=O)NC1=C[C@](O)(CCCCC(=O)O)[C@@H](O)CC1=O`, for which the IC50 (in the experiment with HCT-116; in the experiment with K562; in experiment [1]; in the experiment on A549; in experiment [2]; in experiment [3] (read-out: IC50)) was > 100 µM each time. Also, the half-maximal inhibitory concentration (IC50) in the experiment on MDA-MB-231 is > 100 µM.

Regarding `CC(C)=C[C@H](C)C[C@H](C)/C=C(\C)C(=O)NC1=C[C@](O)(CCCCC(=O)O)[C@@H](O)CC1=O`, the IC50 in the experiment on HCT-116 is 34 µM; in the experiment with K562, 59 µM; in experiment [1] it was 32 µM; in the experiment with A549, > 100 µM; in experiment [2], 15 µM; in experiment [3] (read-out: IC50) it was 30 µM. The molecule also yielded an IC50 with MDA-MB-231 of 92 µM.

As for `COc1cc([C@@H]2c3cc4c(cc3[C@@H](O[C@@H]3O[C@@H]5CO[C@@H](C)O[C@H]5[C@H](O)[C@H]3O)[C@H]3COC(=O)[C@H]23)OCO4)cc(OC)c1O` [ETOPOSIDE], the IC50 with K562 is 3.1 µM; in experiment [1], 1.1 µM; with A549, 0.8 µM; in experiment [2], 0.5 µM; in the experiment on MDA-MB-231, 11 µM.

Turning to `C[C@@H]1O[C@@H](O[C@H]2C[C@@H](O)[C@]3(CO)[C@H]4[C@H](O)C[C@]5(C)[C@@H](C6=CC(=O)OC6)CC[C@]5(O)[C@@H]4CC[C@]3(O)C2)[C@H](O)[C@H](O)[C@H]1O` [OUABAIN], the 50% inhibitory concentration (IC50) in experiment [3] (read-out: IC50) turned out to be 3.8 µM.
